From patent EP1984353B1, “AURORA KINASE MODULATORS AND METHOD OF USE” (Amgen, Inc, priority 2006, dated 2007)
Structures can show the parent of a compound that is named as a salt. Where two headings read alike, the source gives them in different places.

Assays:
AuroraA-TPX2 = target: T1, AuroraA-TPX2 (Homo sapiens, UniProt O14965); assay: AuroraA-TPX2 Homogeneous Time Resolved Fluorescent (HTRF) kinase assay; assay type: biochemical
T1 construct: 20 µL of AuroraA-TPX2 KD GST; GST
T1 sequence (O14965 133-383 limits assumed): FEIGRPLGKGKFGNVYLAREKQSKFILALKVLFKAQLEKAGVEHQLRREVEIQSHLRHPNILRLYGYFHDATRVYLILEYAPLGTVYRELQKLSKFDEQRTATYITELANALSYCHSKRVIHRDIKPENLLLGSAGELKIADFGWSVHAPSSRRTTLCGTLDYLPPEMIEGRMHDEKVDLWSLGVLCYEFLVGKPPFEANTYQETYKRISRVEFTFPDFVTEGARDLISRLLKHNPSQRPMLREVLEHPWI
T1 sequence (Q9ULW0 1-43 partner limits assumed): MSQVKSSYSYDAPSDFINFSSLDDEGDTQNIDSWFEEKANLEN
Experimental: AuroraA-TPX2-Homogeneous Time Resolved Fluorescent (HTRF) Kinase Assay:
The Aurora-A HTRF assay begins with Aurora-A in the presence of ATP phosphorylating the biotinylated peptide PLK. The reaction incubates for about 120 min. Detection reagents are added to quench the reaction. These agents stop the reaction by diluting out the enzyme and chelating the metals due to the presence of EDTA. After addition, the assay is incubated overnight to allow the detection reagents to equilibrate.
The final concentration of PLK is about 1 µM. […] Buffer conditions are as follows: 60mM HEPES pH 7.5, 25mM NaCl, 10mM MgCl, 2mM DTT, 0.05% BSA.
(§1) The assay is quenched and stopped with 160 µL, of detection reagent. Detection reagents are as follows: Buffer made of 50mM Tris, pH 7.5, 100mM NaCl, 3mM EDTA, 0.05% BSA, 0.1% Tween20. Added to this buffer prior to reading is Steptavidin allophycocyanin (SA-APC) at a final conc in the assay of 0.0005 mg/mL, and europilated anti-phosphoPLK Ab (Eu-anti-PLK) at a final conc of 0.02 nM.
The assay plate is read in either a Discovery or a RubyStar. The eu-anti-PLK is excited at 320 nm and emits at 615 nm to excite the SA-APC which in turn emits at 655 nm.

AuroraB = target: T2, AuroraB (Homo sapiens, UniProt Q96GD4); assay: AuroraB Homogeneous Time Resolved Fluorescent (HTRF) kinase assay; assay type: biochemical
T2 construct: 20 µL of AuroraB FL His; His
T2 sequence (Q96GD4 whole entry): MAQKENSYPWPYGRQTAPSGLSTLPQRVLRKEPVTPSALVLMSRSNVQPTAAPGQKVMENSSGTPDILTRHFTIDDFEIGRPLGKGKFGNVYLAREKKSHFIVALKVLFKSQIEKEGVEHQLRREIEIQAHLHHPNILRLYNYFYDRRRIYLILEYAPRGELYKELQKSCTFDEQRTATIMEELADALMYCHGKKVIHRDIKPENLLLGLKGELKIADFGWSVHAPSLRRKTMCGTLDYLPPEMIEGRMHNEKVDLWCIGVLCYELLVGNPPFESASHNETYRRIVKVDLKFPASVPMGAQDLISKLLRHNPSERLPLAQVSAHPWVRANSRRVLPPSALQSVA
Experimental: AuroraB-Homogeneous Time Resolved Fluorescent (HTRF) Kinase Assay:
The AuroraB HTRF assay begins with AuroraB in the presence of ATP phosphorylating the biotinylated peptide Histone H3. The reaction incubates for about 90 min. the reaction is quentched by addition of detection reagents, which stop the reaction by diluting out the enzyme and chelating the metals due to the presence of EDTA. After addition, the assay is incubated for about 60 min to allow detection reagents to equilibrate.
The AuroraB HTRF assay comprises 1 µL of compound in 100% DMSO, 20 µL of ATP and biotinylated Histone H3, and 20 µL of AuroraB FL His for a final volume of 41 µL. The final concentration of Histone H3 is 0.1 µM. The final concentration of ATP is 23 µM (Km(app) = 23 µM+/-2.6) and the final concentration of AuroraB is 400 pM. Buffer conditions are as follows: 50mM HEPES pH 7.5, 5mM NaCl, 0.5mM MgCl, 0.5mM MnCl, 2mM DTT, 0.05% BSA.
as §1, with “µL” for “µL,”, “0.001” for “0.0005”, “anti-phosphoHistoneH3” for “anti-phosphoPLK”, “(Eu-anti-HisH3)” for “(Eu-anti-PLK)”, “0.064” for “0.02”
The assay plate is read in either a Discovery or a RubyStar. The eu-anti-HisH3 is excited at 320 nm and emits at 615 nm to excite the SA-APC which in turn emits at 655 nm. The ratio of SA-APC at 655 nm (excited due to close proximity to the Eu-anti-HisH3 because of phosphorylation of the peptide) to free Eu-anti-HisH3 at 615 nm will give substrate phosphorylation.

[1] = read-out: average inhibitory activity (IC50) in the Aurora kinase A HTRF assay
[2] = read-out: average activity in the Aurora kinase A HTRF assay
[3] = read-out: average activity in the Aurora kinase B HTRF assay
[4] = average, given as numbers, unit inferred, read-out: AurA/TP X2_ IC50_IP (Avg)
[5] = average, given as numbers, unit inferred, read-out: AurB_ _IC50_IP (Avg)
[6] = average, given as class symbols, read-out: AurA/TP X2_ IC50_IP (Avg)
[7] = average, given as class symbols, read-out: AurB_ _IC50_IP (Avg)

| SMILES | IC50 (AuroraA-TPX2; [2]) [nM] | IC50 (AuroraB; [3]) [nM] | IC50 (AuroraB; [7]) [nM] | other results |
| --- | --- | --- | --- | --- |
| CNc1cc(-c2cccnc2Oc2ccc(Nc3nnc(-c4ccc(F)cc4)c4ccccc34)cn2)ccn1 [Example 60, 2-((5-((4-(4-fluorophenyl)-1-phthalazinyl)amino)-2-pyridinyl)oxy)-N-methyl-3,4'-bipyridin-2'-amine] | – | – | – | IC50 (AuroraA-TPX2; [1]): < 500 nM |
| c1ccc(-c2nnc(Nc3ccc(Oc4ncccc4-c4ccnc5[nH]ccc45)cc3)c3ccccc23)cc1 [Example 61, 4-phenyl-N-(4-((3-(1H-pyrrolo[2,3-b]pyridin-4-yl)-2-pyridinyl)oxy)phenyl)-1-phthalazinamine] | – | – | – | IC50 (AuroraA-TPX2; [1]): < 500 nM |
| Nc1nccc(-c2cccnc2Oc2ccc(Nc3nnc(N4CCCCC4)c4ccccc34)cc2)n1 [Example 67, N-(4-((3-(2-amino-4-pyrimidinyl)-2-pyridinyl)oxy)phenyl)-4-(1-piperidinyl)-1-phthalazinamine] | – | – | – | IC50 (AuroraA-TPX2; [1]): < 500 nM |
| CNc1nccc(-c2cccnc2Oc2ccc(Nc3nnc(N4CCCCC4)c4ccccc34)cn2)n1 [Example 68, N-(6-((3-(2-(methylamino)-4-pyrimidinyl)-2-pyridinyl)oxy)-3-pyridinyl)-4-(1-piperidinyl)-1-phthalazinamine] | – | – | – | IC50 (AuroraA-TPX2; [1]): < 500 nM |
| NC(=O)c1n[nH]cc1-c1cccnc1Oc1ccc(Nc2nnc(-c3ccccc3)c3ccccc23)cc1 [Example 241, 4-(2-(4-(4-phenylphthalazin-1-ylamino)phenoxy)pyridin-3-yl)-1H-pyrazole-3-carboxamide] | ≤ 1000 | ≤ 1000 | – | – |
| CNc1nccc(-c2cccnc2Oc2ccc(Nc3nnc(-c4cc(Cl)cs4)c4ccccc34)cc2)n1 [Example 245, 4-(4-chlorothiophen-2-yl)-N-(4-(3-(2-(methylamino)pyrimidin-4-yl)pyridin-2-yloxy)phenyl)phthalazin-1-amine] | ≤ 1000 | ≤ 1000 | – | – |
| c1ccc(-c2nnc(Nc3cnc(Oc4ccccc4-c4ccncc4)nc3)c3ccccc23)cc1 [Example 468, 4-Phenyl-N-(2-(2-(pyridin-4-yl)phenoxy)pyrimidin-5-yl)phthalazin-1-amine] | ≤ 100 | ≤ 100 | – | – |
| Nc1ncc(F)c(-c2cccnc2Oc2ccc(Nc3nnc(-c4ccccc4)c4ccccc34)cc2)n1 [Example 469, N-(4-(3-(2-Amino-5-fluoropyrimidin-4-yl)pyridin-2-yloxy)phenyl)-4-phenylphthalazin-1-amine] | ≤ 100 | ≤ 100 | – | – |
| COC(=O)c1cc(-c2ccccc2)nnc1Nc1ccc(Oc2ncccc2-c2ccnc(N)n2)cc1 [Example 470, methyl 3-((4-((3-(2-amino-4-pyrimidinyl)-2-pyridinyl)oxy)phenyl)amino)-6-phenyl-4-pyridazinecarboxylate] | ≤ 1000 | ≤ 1000 | – | – |
| Nc1nccc(-c2cccnc2Oc2ccc(Nc3nnc(-c4ccc(CN5CCCC5)cc4)c4ccccc34)cc2)n1 [Example Method E, N-(4-(3-(2-aminopyrimidin-4-yl)pyridin-2-yloxy)phenyl)-4-(4-(pyrrolidin-1-ylmethyl)phenyl)phthalazin-1-amine] | ≤ 1000 | ≤ 1000 | – | – |
| O=P(O)(O)OCCCNc1nccc(-c2cccnc2Oc2ccc(Nc3nnc(-c4ccccc4)c4ccccc34)cc2)n1 [Example Method F, 3-(4-(2-(4-(4-phenylphthalazin-1-ylamino)phenoxy)pyridin-3-yl)pyrimidin-2-ylamino)propyl dihydrogen phosphate dihydrochloride] | ≤ 100 | ≤ 100 | – | – |
| Cc1cc(-c2nnc(Nc3ccc(Oc4ncccc4-c4ccnc(N)n4)cc3)c3ccccc23)sn1 [compound 251, N-(4-((3-(2-amino-4-pyrimidinyl)-2-pyridinyl)oxy)phenyl)-4-(3-methyl-5-isothiazolyl)-1-phthalazinamine] | – | – | – | IC50 (AuroraA-TPX2; [4]): 16 nM; IC50 (AuroraB; [5]): 0.4 nM |
| c1ccc(-c2nnc(Nc3ccc(Oc4ccccc4-c4ccncc4)cc3)c3ccccc23)cc1 [compound 252, 4-phenyl-N-(4-((2-(4-pyridinyl)phenyl)oxy)phenyl)-1-phthalazinamine] | – | – | – | IC50 (AuroraA-TPX2; [4]): 166 nM; IC50 (AuroraB; [5]): 660 nM |
| COc1cccc(OC)c1-c1nnc(Nc2ccc(Oc3ncccc3-c3ccnc(N)n3)cc2)c2ccccc12 [compound 253, N-(4-((3-(2-amino-4-pyrimidinyl)-2-pyridinyl)oxy)phenyl)-4-(2,6-bis(methyloxy)phenyl)-1-phthalazinamine] | – | – | – | IC50 (AuroraA-TPX2; [4]): 2320 nM; IC50 (AuroraB; [5]): 472 nM |
| Nc1nccc(-c2ccccc2Oc2ccc(Nc3nnc(-c4ccccc4)c4ccccc34)cc2)n1 [compound 254, N-(4-((2-(2-amino-4-pyrimidinyl)phenyl)oxy)phenyl)-4-phenyl-1-phthalazinamine] | – | – | ≤ 100 | IC50 (AuroraA-TPX2; [6]): ≤ 100 nM |
| CNc1cc(-c2cccnc2Nc2ccc(Nc3nnc(-c4ccccc4)c4ccccc34)cc2)ncn1 [compound 255, N-(3-(6-(methylamino)-4-pyrimidinyl)-2-pyridinyl)-N'-(4-phenyl-1-phthalazinyl)-1,4-benzenediamine] | – | – | ≤ 100 | IC50 (AuroraA-TPX2; [6]): 100 to 500 nM |
| Cc1csc(-c2cc(C)c(Nc3ccc(Oc4ncccc4-c4ccnc5c4CCCN5)cc3)nn2)n1 [compound 286, 4-methyl-6-(4-methyl-1,3-thiazol-2-yl)-N-(4-((3-(5,6,7,8-tetrahydro-1,8-naphthyridin-4-yl)-2-pyridinyl)oxy)phenyl)-3-pyridazinamine] | – | – | 500 to 2500 | – |
| COc1ccc(CNc2cc(-c3ccccc3Oc3ncc(Nc4nnc(-c5ccccc5)c5ccccc45)cn3)ccn2)cc1 [compound 290, N-(2-((2-(2-(((4-(methyloxy)phenyl)methyl)amino)-4-pyridinyl)phenyl)oxy)-5-pyrimidinyl)-4-phenyl-1-phthalazinamine] | – | – | 500 to 2500 | – |
| c1ccc(-c2nnc(Nc3ccc(Oc4ncccc4-c4ccnc(N5CCC5)n4)cc3)c3ccccc23)cc1 [compound 294, N-(4-((3-(2-(1-azetidinyl)-4-pyrimidinyl)-2-pyridinyl)oxy)phenyl)-4-phenyl-1-phthalazinamine] | – | – | ≤ 100 | – |
| Oc1nccc(-c2cccnc2Oc2ccc(Nc3nnc(-c4ccccc4)c4ccccc34)cc2)n1 [compound 325, 4-(2-((4-((4-phenyl-1-phthalazinyl)amino)phenyl)oxy)-3-pyridinyl)-2-pyrimidinol] | – | – | – | IC50 (AuroraA-TPX2; [6]): 500 to 2500 nM |
| Nc1nccc(-c2cccnc2Oc2ccc(Nc3nnc(N4CCC(CO)CC4)c4ccccc34)cc2)n1 [compound 353, (1-(4-((4-((3-(2-amino-4-pyrimidinyl)-2-pyridinyl)oxy)phenyl)amino)-1-phthalazinyl)-4-piperidinyl)methanol] | – | – | ≤ 100 | – |
| C[C@H]1CN(c2nnc(Nc3ccc(Oc4ncccc4-c4ccnc(N)n4)cc3)c3ccccc23)CCN1 [compound 398, N-(4-((3-(2-amino-4-pyrimidinyl)-2-pyridinyl)oxy)phenyl)-4-((3S)-3-methyl-1-piperazinyl)-1-phthalazinamine] | – | – | 100 to 500 | – |
| Nc1nccc(-c2cccnc2Oc2ccc(Nc3nnc(-c4cccc(CNCCO)c4)c4ccccc34)cc2)n1 [compound 413, 2-(((3-(4-((4-((3-(2-amino-4-pyrimidinyl)-2-pyridinyl)oxy)phenyl)amino)-1-phthalazinyl)phenyl)methyl)amino)ethanol] | – | – | ≤ 100 | – |
